Laboratory results: PubChem BioAssay (NCI)
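Test compounds were applied to cells in 96-well plates for 48 hours at 5 doses. At the GI50, growth is halved. TGI: concentration producing complete growth inhibition.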

Assays:
Experiment in all cases: NCI anticancer screen, dose series, 48 h
SF-268 CNS = system: SF-268 CNS
OVCAR-3 ovarian = system: OVCAR-3 ovarian
A498 renal = system: A498 renal
786-0 renal = system: 786-0 renal
SK-MEL-5 melanoma = system: SK-MEL-5 melanoma
M14 melanoma = system: M14 melanoma
RPMI-8226 leukemia = system: RPMI-8226 leukemia
U251 CNS = system: U251 CNS
SF-295 CNS = system: SF-295 CNS
T-47D breast = system: T-47D breast

| Structure (SMILES) | TGI (SF-268 CNS) [µM] | TGI (OVCAR-3 ovarian) [µM] | TGI (A498 renal) [µM] | TGI (786-0 renal) [µM] | TGI (SK-MEL-5 melanoma) [µM] | TGI (M14 melanoma) [µM] | TGI (RPMI-8226 leukemia) [µM] | TGI (U251 CNS) [µM] | TGI (SF-295 CNS) [µM] | GI50 (SF-268 CNS) [µM] | GI50 (OVCAR-3 ovarian) [µM] | GI50 (A498 renal) [µM] | GI50 (786-0 renal) [µM] | GI50 (M14 melanoma) [µM] | GI50 (RPMI-8226 leukemia) [µM] | GI50 (U251 CNS) [µM] | GI50 (T-47D breast) [µM] | TGI (T-47D breast) [µM] | GI50 (SK-MEL-5 melanoma) [µM] | GI50 (SF-295 CNS) [µM] |
| --- | --- | --- | --- | --- | --- | --- | --- | --- | --- | --- | --- | --- | --- | --- | --- | --- | --- | --- | --- | --- |
| COC(=O)C(Cc1cc(OC)c(OC)c(OC)c1)c1ccc(OC)cc1 (centres undefined) | > 100 | > 100 | > 100 | > 100 | > 100 | > 100 | > 100 | > 100 | > 100 |  |  |  |  |  |  |  |  |  |  |  |
| COc1cc2nc(SCC(=O)Nc3cc(OC)c(OC)c(OC)c3)n(Cc3ccccc3)c(=O)c2cc1OC | 23.2 | 50.3 | 32.5 | 17.6 |  | > 100 | > 100 | 11.2 |  | 3.57 | 7.68 | 1.75 | 3.51 | 16.1 | > 100 | 3.18 | 6.57 | > 100 |  |  |
| COc1ccc2c(c1)[n+](=O)c(C(=O)c1ccco1)c(C(F)(F)F)n2[O-] | 33.2 | 11.5 | 16 | 54.1 | 2.68 | 6.72 | 22.1 | 8.67 | 14.7 | 3.41 | 1.54 | 3.98 | 3.83 | 2 | 1.62 | 2.04 |  |  | 1.31 | 2.79 |
| O=[N+]([O-])c1ccccc1N/N=C\c1c[nH]c2ccccc12 | > 100 | > 64.9 |  | > 93.1 | > 100 | > 100 | > 100 | 24.2 | 33 | 9.04 | 8.18 |  | 18.8 | 34.7 | 47.4 | 10.6 | 3.52 | > 100 | 71.4 | 9.5 |
| Clc1ccc2c(c1)N(c1ncnc3ccc(-c4cnc5[nH]ccc5c4)cc13)CC2 | 24.1 | 20.4 |  | 14.5 | 26.4 | 11.9 | > 100 | 10.9 | 19.7 | 3.14 | 1.67 |  | 1.56 | 0.992 | 0.766 | 2.51 | 0.501 | 6.48 | 3.8 | 0.88 |
| Cc1ccc(NC(=O)C(=O)C(C#N)c2nc(-c3ccc(-c4ccccc4)cc3)cs2)c(C)c1 (centres undefined) | > 100 | > 100 | > 100 | > 100 | > 100 | > 100 | > 100 | > 100 | > 100 |  |  |  |  |  |  |  |  |  |  |  |
| O=C1c2ccccc2C(=O)N1CCN(CCN1C(=O)c2ccccc2C1=O)Cn1cccn1 | > 100 | > 100 | > 100 | > 100 | > 100 | > 100 | 83.4 | > 100 | > 100 |  |  |  |  |  |  |  |  |  |  |  |
| CC(=O)c1ccc(OCC(O)CO)cc1 (centres undefined) | > 100 | > 100 | > 100 | 76.2 | > 100 | > 100 | > 100 | > 100 | > 100 |  |  |  |  |  |  |  |  |  |  |  |
| Cc1cc2c(cc1C)[n+](=O)c(C(=O)C/C(=N/OCCCc1ccccc1)C(=O)Nc1cc(Cl)ccc1Cl)c(C)n2[O-] | > 100 | > 100 | > 100 | > 100 | > 100 | > 100 |  | > 100 | > 100 |  |  |  |  |  |  |  |  |  |  |  |
| Nc1nc2c(s1)CCc1c-2c(Br)n(Cc2ccccc2)c1Br | 39 | 13.8 | 33.8 | 22.9 | 30.2 | 30.2 |  | 28.2 | 33.4 | 14.6 | 3.9 | 17.3 | 7.11 | 14.5 |  | 14 | 3.17 | 10.6 | 14.3 | 16.6 |
| OCC(O)C(O)C(O)c1nn(-c2ccc(Cl)cc2)c2nc3cc(Cl)c(Cl)cc3nc12 (centres undefined) | > 100 | > 100 |  | > 100 |  | > 100 | > 100 | > 100 | > 100 |  |  |  |  |  |  |  |  |  |  |  |
| O=C1NC(=O)C(=C/C=C/c2ccccc2)C(=O)N1 | 10.3 | 3.97 | 34.6 | 11 | 4.94 | 4.73 | 10.2 | 10.3 |  | 3.2 | 1.53 | 20 | 3.11 | 2.04 | 3.59 | 2.5 | 11.6 | 53 | 2.24 |  |
| O=C(O)C[C@H]1CCCCC12CCOC2=O (some centres undefined) | > 100 | > 100 |  | > 100 | > 100 | > 100 | > 100 | > 100 | > 100 |  |  |  |  |  |  |  |  |  |  |  |
| CC1COc2c(N3CCN(C)CC3)c(F)cc3c(=O)c(C(=O)O)cn1c23 (centres undefined) | > 100 | > 100 | > 100 | > 100 | > 100 | > 100 | > 100 | > 100 | > 100 | > 100 | > 100 | > 100 | > 100 | > 100 | > 100 | > 100 |  |  | > 100 | > 100 |
| NNC(=O)CNC(=O)c1ccc(Cl)cc1Cl | > 100 | > 100 | > 100 | > 100 | > 100 | > 100 | > 100 | > 100 | > 100 |  |  |  |  |  |  |  |  |  |  |  |
| N#Cc1c2c(c(N=P(c3ccccc3)(c3ccccc3)c3ccccc3)n3c1nc1ccccc13)CCCC2 | > 100 | 86.1 | 73.2 | > 100 | 27.3 | > 100 | 61.6 | 77.9 | > 100 |  |  |  |  |  |  |  |  |  |  |  |
| CC1SC2=NC3=C(c4ccccc4C3=O)C(c3ccc(Cl)cc3)N2C1=O (centres undefined) | > 100 | > 100 | > 100 | > 100 | > 100 | > 100 | > 100 | > 100 | > 100 |  |  |  |  |  |  |  |  |  |  |  |
| CNC(=O)OCc1c2ccncc2c(C)c2c1[nH]c1ccccc12 | 1.65 | 1.74 | 0.673 | 14.2 | 0.773 | 2.95 |  | 1.8 | 4.66 |  |  |  |  |  |  |  |  | 9.61 |  |  |
